This note sets out measurements from patent US12668567B2 (Zywie, LLC, priority 2023, dated 2026).

Data set [1] concerns iPSC-derived human neurons bearing the Swedish amyloid precursor protein mutation. The experiment in a line: Secretion of Abeta40 and Abeta42 into media (ELISA). It counts as cell-based. To be noted: 5 days; for secretion of Abeta40 into the media / secretion of Abeta42 into the media: 10 micromolar; for secretion of Abeta40 into the media: FIG. 7A; for secretion of Abeta42 into the media: FIG. 7B. The source says:
Media was collected and analysed by ELISA assay.
Media was taken and analyzed by ELISA (Invitrogen) for Abeta 40 (FIG. 7A) and 42 (FIG. 7B) following manufacturer's instructions.
(ELISA stands for enzyme-linked immunosorbent assay.)

The next data set concerns mice. The data set is described as follows: Novel place recognition (cognitive acuity test at 7 months). It is filed as in vivo, mouse. To be noted: 150 mg/kg/day and 50 mg/kg/day vs. control, tested at 7 months; FIG. 9.
The next data set deals with mouse B6D2F1 model. The experiment in a line: Lifespan study with chow supplement. To be noted: 50 mg/kg daily as chow supplement. It counts as in vivo. The protocol: Weaned male BDF1 mice raised from pups, housed 1-4 animals per cage and fed Teklad 7013 NIH-31 rodent chow and water ad libitum, at 2 months of age, are divided into two roughly equal groups of 22-25 animals. One group continues to be fed the Teklad chow as before (control); the other group is switched to Teklad chow formulated with any one of compounds 1-6 at 300 mg per kg of chow. This formulation was designed, based on the average ad libitum chow consumption of an adult male BDF1 mouse, to deliver 50 mg/kg/day (based on body mass) to each mouse in the treated group. Mice are maintained on this diet until they die naturally or until they reach 16 months of age, at which time the experiment ends. During the course of the experiment, all mice are periodically removed from their cages and handled in the course of subjecting them to various sensorimotor, cognitive, and/or behavioral tests.

A short description of data set [2]: Metabolic stability in human liver microsomes. It counts as in vitro ADME. To be noted: for Increase of elimination half-life vs. ambroxol: human liver microsomes; for In vitro elimination half-life t1/2 / Intrinsic clearance CLint-microsomes: human liver microsomes 1 mg/mL protein, 1 μM compound, 37° C., NADPH-regenerating system. The protocol: The compounds were added to preparations of human liver microsomes (200 μL per incubation at a 1 mg/mL protein concentration) such that the final compound concentration was 1 μM. The samples were incubated at 37° C. in the presence of a reduced nicotinamide adenine dinucleotide phosphate (NADPH)-regenerating system (NADP, 1 mM, pH 7.4; glucose-6-phosphate, 5 mM, pH 7.4; glucose-6-phosphate dehydrogenase, 1 unit/mL). A positive control (midazolam, 1 μM, 0.1 mg/mL protein) was incubated concurrently to ensure the microsome preparation was performing as expected. Samples were obtained at t=0, 30, 60, and 120 min and quenched by addition of acetonitrile.
Quenched samples were analyzed by liquid chromatography coupled to tandem mass spectrometry detection (LC/MS-MS). The concentration of the test compounds at each time point were converted to percent remaining relative to the concentration of the compound at time t=0 (which serves as the 100% value). All data points were included in data processing. The rate constant of elimination (kel, min^−1) of each test compound was determined from the time course of disappearance of the parent compound based on fitting the experimental data to a single exponential decay formula (At=Aoe^−kelt, where At is the % remaining at time t, Ao is 100%, […] is the elimination rate constant, and t is time). The in vitro half-life (t1/2) was determined from kel based on the formula: t1/2=ln(2)/kel. The rate constant of elimination was also used to calculate the in vitro intrinsic clearance CLint-microsomes (μL/min/mg protein).
(In general: Liver microsomes are a subcellular fraction often used to study metabolism.)

The test system of data set [3] is iPSC-derived human neurons. The data set is described as follows: Lysosomal and autophagosomal gene expression by qPCR in iPSC-derived human neurons. It is filed as cell-based. To be noted: 3 days, 10 micromolar, FIG. 5. The protocol:
To obtain the data, iPSC-derived human Neurons were treated for 3 days with solvent alone (DMSO), ZW-010 (difluoro) or ZW-011 (dimethoxy) at 10 micromolar. Cells were extracted and mRNAs were quantitated by qPCR.
In FIG. 5, Human iPSC-derived neurons (as in FIG. 3) were plated on two 6-well plates at a density of 150,000 cells/well. […] Cells were treated for 3 days and cells were TRIzol-chloroform extracted. cDNA was created using an iScript cDNA synthesis kit (Bio-Rad), and RT-PCR was run using a SsoAdvanced Universal SYBR Green Supermix kit (Bio-Rad).
A general note: In qPCR the cycle at which signal appears reflects the starting amount.

For the next data set, the system named is N2A neuroblastoma cells. The data set is described as follows: Lysosomal, autophagosomal and TFEB gene expression by qPCR in N2A cells. It is filed as cell-based. The settings on record: 10 micromolar, FIG. 4. The protocol: To obtain the data, N2A neuroblastoma cells were treated for 3 days with solvent alone (DMSO), ZW-010 (difluoro) or ZW-011 (dimethoxy) at 10 micromolar. Cells were extracted and mRNAs were quantitated by qPCR.
In FIG. 4, N2a Neuroblastoma cells were obtained from the American Tissue Type Collection (ATCC). Cells were plated in a 6-well plate at a density of 100,000 cells/well. Cells were given 24 hours in MEM supplemented with 10% Fetal Bovine Serum (FBS) and then differentiated by serum starvation in MEM for 24 hours. […] Cells were left in treated media for 24 hours then RNA was TRIzol-chloroform extracted. cDNA was created using an iScript cDNA synthesis kit (Bio-Rad), and RT-PCR was run using a SsoAdvanced Universal SYBR Green Supermix kit (Bio-Rad).

For data set [4] the following is noted: mouse, in vivo, po, 10 mg/kg. The protocol: Both compounds were dosed at 10 mg/kg (free base equivalent) as 1 mg/mL clear solutions in 5:95 v/v dimethylsulfoxide (DMSO)/saline. Volumes administered were calculated for each animal based on their most recent weight. Animals were fasted overnight prior to drug administration and food and water were returned 4 h after dose administration. Mice (N=3 per group) were sacrificed at 0.15, 0.25, 1, 2, 4, 8, and 24 h post-dose. Blood (K2EDTA collection tubes) and brain were collected from each animal at each time point. Plasma (isolated from blood samples by centrifugation) and brain homogenates (obtained by homogenization with 50% methanol in water in a 1:2 w/v ratio) were used to prepare samples for quantitative analysis (internal standard: verapamil) by HPLC/MS-MS (C18 column, gradient elution; standard curves from 1 to 3,000 ng/mL; electrospray, positive ionization mode, multiple reaction monitoring—MRM—mode).

Data set [5] concerns human induced pluripotent stem cell (iPSC)-derived neurons. The data set is described as follows: Lysosomal size (Lysotracker, confocal microscopy) in iPSC-derived neurons. It is filed as cell-based. To be noted: 14 days, IMARIS software, FIG. 3. The protocol:
To obtain the data, human induced pluripotent stem cell (iPSC)-derived neurons were grown in culture for 14 days. Lysosomes were stained with “Lysotracker” and cells were fixed and imaged using confocal micrsosopy. Lysosomal size was measured using IMARIS software (Bitplane).
In FIG. 3 human neuronal inducible Pluripotent Stem Cells (iPSCs) were obtained from the New York Stem Cell Foundation. Cultured cells were differentiated and maintained in proprietary media from Stem Cell Technology. […] Cells were treated for 14 days. Lysosomes were stained with “Lysotracker Green” (Invitrogen) following manufacturer's directions. Cells were fixed and 3D image stacks were acquired using a Leica SP8 laser scanning confocal microscope. Lysosomal size was quantitated using IMARIS 7.7 software (Bitplane).

Another data set relates to TFEB. The experiment in a line: TFEB transfer to the nucleus (immunostaining, nuclear puncta). It counts as cell-based. The settings on record: human iPSC-derived neurons, 14 days; FIG. 6. The protocol: To obtain the data, human iPSC-derived neurons were treated with difluor-substituted-ambroxol for 14 days. Cells were fixed and endogenous TFEB was immunostained and nuclei were identified by DAPI staining. Cells were imaged on a Leica SP8 Confocal Microscope. TFEB signal appeared as puncta throughout the cytoplasm and nucleus (FIG. 6B). TFEB puncta within the nucleus were quantitated using IMARIS software (Bitplane).
Human iPSC-derived neurons were treated with difluoro-substituted-ambroxol for 14 days. Cells were fixed and endogenous TFEB was immunostained. Nuclei were identified by DAPI staining. Cells were imaged as 3D stacks on a Leica SP8 Confocal Microscope. TFEB signal appeared as puncta throughout the cytoplasm and nucleus (FIG. 6A). TFEB puncta within the nucleus were quantitated using IMARIS 7.7 software (Bitplane) (FIG. 6B).

“Also recorded” adds a separate entry of the source.

Description for mice: A Discrimination Index (DI)=(tnovel-tfamiliar)/(tnovel+tfamiliar) was used to assess the time spent exploring near the object in a novel place (“tnovel”) vs. the total exploration time overall. Discrimination Index scores greater than zero are considered to indicate good place recognition memory.
Three groups of mice, with at least 13 mice in each group, are given a cognitive acuity test at 7 months. The three groups of mice are: “High Dose” Group (150 mg/kg/day of a compound of the present invention), “Low Dose” (50 mg/kg/day of a compound of the present invention) Group, and a Control Group (not administered a compound of the present invention).

With `Nc1c(Br)cc(Br)cc1CN[C@H]1CC[C@H](O)CC1` [ambroxol, trans-4-((2-amino-3,5-dibromobenzyl)amino) cyclohexanol], the “secretion of beta amyloid species (Abeta 40 and 42)” value in [1] (FIG. 7A-B) is “effective in reducing secretion of beta amyloid species”. Moreover, the “cognitive acuity (novel place recognition)” value with mice is “dose-related improvement in cognitive acuity”. In the data set on mouse B6D2F1 model (starting at 2 months of age, FIG. 8), the lifespan result was “able to increase lifespan”. In addition, in the data set with mouse B6D2F1 model (surviving animals when sacrificed), the healthspan result is given as “healthspan was extended in parallel with lifespan”.
Take `Nc1c(F)cc(F)cc1CN[C@H]1CC[C@H](O)CC1` [ZW-010, trans-{4-[(2-amino-3.5-difluorophenyl)methyl]amino}cyclohexanol]: in data set [2], the “Increase of elimination half-life vs. ambroxol” value is reported as “increased by more than two-fold”, the “In vitro elimination half-life t1/2” value is >120 min and the “Intrinsic clearance CLint-microsomes” value was <5.775 μL/min/mg protein. Further, in [1], the “secretion of Abeta40 into the media” value is “decreased secretion” and the “secretion of Abeta42 into the media” value was “decreased secretion”. Further, the “lysosomal and autophagosomal gene expression (LAMP1, Cathepsin D, Cathepsin B, GBA1, LC3, TFEB mRNA)” value in [3] was “increased transcription of lysosome-associated LAMP1, Cathepsin D, Cathepsin B, GBA1, and autophagy-associated LC3 and TFEB to a greater extent than ambroxol; also recorded: drive lysosomal and autophagosomal gene expression to a greater degree in iPSC-derived human neurons compared with ambroxol”. In addition, in the data set with N2A neuroblastoma cells, the “lysosomal, autophagosomal and TFEB gene expression (LAMP1, Cathepsin B, GBA1, LC3, TFEB mRNA)” value is “increased transcription of lysosome-associated LAMP1, Cathepsin B, GBA1, and autophagy-associated LC3 and TFEB to a greater extent than ambroxol; also recorded: drive lysosomal and autophagosomal and TFEB gene expression”. Further, in data set [4], the “AUClast Brain/Plasma” value came to 3.6; the “AUClast, brain” value turned out to be 10774 ng·h/g; the “AUClast, plasma” value came out at 2991 ng·h/mL; the “molar exposure AUClast” value turned out to be 42.0 µM·h. Besides, the lysosomal size result in data set [5] is “increase lysosomal size”. Also, the “TFEB transfer to the nucleus” value in the data set with TFEB is on record as “induces TFEB transfer to the nucleus”.
On to `COc1cc(CN[C@H]2CC[C@H](O)CC2)c(N)c(OC)c1` [ZW-011, trans-4-{[(2-amino-3.5-dimethoxyphenyl)methyl]amino}cyclohexanol], for which, in [2], the “Increase of elimination half-life vs. ambroxol” value is on record as “increased by more than two-fold”, the “In vitro elimination half-life t1/2” value is given as >120 min and the “Intrinsic clearance CLint-microsomes” value is reported as <5.775 μL/min/mg protein. Moreover, in data set [1], the “secretion of Abeta40 into the media” value is reported as “decreased secretion” and the “secretion of Abeta42 into the media” value is given as “decreased secretion”. Moreover, the “lysosomal and autophagosomal gene expression (LAMP1, Cathepsin D, Cathepsin B, GBA1, LC3, TFEB mRNA)” value in [3] is “increased transcription of lysosome-associated LAMP1, Cathepsin D, Cathepsin B, GBA1, and autophagy-associated LC3 and TFEB to a greater extent than ambroxol; also recorded: drive lysosomal and autophagosomal gene expression to a greater degree in iPSC-derived human neurons compared with ambroxol”. Also, the “lysosomal, autophagosomal and TFEB gene expression (LAMP1, Cathepsin B, GBA1, LC3, TFEB mRNA)” value in the data set with N2A neuroblastoma cells is “increased transcription of lysosome-associated LAMP1, Cathepsin B, GBA1, and autophagy-associated LC3 and TFEB to a greater extent than ambroxol; also recorded: drive lysosomal and autophagosomal and TFEB gene expression”. Further, in data set [5], the lysosomal size result is given as “increase lysosomal size”.
